# Source: patent publication US20260022103A1, “PRAMIPEXOLE XINAFOATE AND SUSTAINED-RELEASE PHARMACEUTICAL FORMULATION THEREOF” (JEWIM PHARMACEUTICAL (SHANDONG) CO., LTD., priority 2022, published 2026)
# Counter-ions that a name gives are not always drawn. Like-named read-outs stand apart in the source and are kept apart here.
# What was measured:
# dopamine D2 receptor = dopamine D2 receptor (Homo sapiens, UniProt P14416); settings: cited from earlier work
# [1] = for Saturation concentration: 48 h
# Description: The concentrations of the pramipexole salts in different media for saturation at 48 h were determined by a shake flask dissolution method at 37° C.
# [2] = Pharmacokinetics of different pramipexole salt suspension injections in rats; type: in vivo; settings: subcutaneous suspension injection
# Description: 18 adult rats, including 12 males and 6 females (non-perilactation period), were selected and divided into three groups with 6 rats each group (a ratio of males to females of 2:1), and subcutaneously administered with 2 ml of the suspension injections of Examples 3-5 respectively. The main pharmacokinetic parameters of each of test animals were determined: the time to peak, the maximal blood drug level and AUC0-t.
# [3] = Phosphate buffer at pH 6.8, 37° C.
# [4] = Phosphate buffer at pH 7.4, 37° C.
# Chain of dopamine D2 receptor (P14416 whole entry, species assumed): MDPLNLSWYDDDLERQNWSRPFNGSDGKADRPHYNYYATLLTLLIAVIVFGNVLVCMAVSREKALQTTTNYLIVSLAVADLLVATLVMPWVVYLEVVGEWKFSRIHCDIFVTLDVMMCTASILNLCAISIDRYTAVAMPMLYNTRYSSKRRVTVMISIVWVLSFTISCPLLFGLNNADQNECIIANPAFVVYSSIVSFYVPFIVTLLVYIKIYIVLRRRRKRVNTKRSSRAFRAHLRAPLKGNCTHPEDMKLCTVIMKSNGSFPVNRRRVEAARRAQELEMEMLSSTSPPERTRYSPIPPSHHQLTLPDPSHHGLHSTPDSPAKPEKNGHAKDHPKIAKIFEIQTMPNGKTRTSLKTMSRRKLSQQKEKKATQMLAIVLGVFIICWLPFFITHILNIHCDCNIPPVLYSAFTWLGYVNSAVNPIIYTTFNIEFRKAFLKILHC
"Saturation concentration ([1]; 0.9% NaCl, 37° C.) [µg/mL]","Saturation concentration [1, 3] [µg/mL]","Saturation concentration [1, 4] [µg/mL]","Saturation concentration ([1]; Water for injection, 37° C.) [µg/mL]",Molecule,also measured
,,,,"CCCN[C@H]1CCc2nc(N)sc2C1 [S(−) isomer, (S)-(−)-2-amino-6-(propylamino)-4,5,6,7-tetrahydrobenzothiazole]",Affinity to dopamine D2 receptor relative to the R(+) isomer (dopamine D2 receptor; ratio versus R(+) isomer): 8-10 times; Affinity to dopamine D2 receptor relative to the racemate (dopamine D2 receptor; ratio versus racemate): 2 times
325.91,392.11,427.37,292.72,CCCN[C@H]1CCc2nc(N)sc2C1.O=C(O)c1ccccc1 [pramipexole benzoate],
,,,,"CCCN[C@H]1CCc2nc(N)sc2C1 [pramipexole hydrochloride, Pramipexole hydrochloride]","Saturation concentration ([1]; 0.9% NaCl, 37° C., hydrochloride): 1207.41 µg/mL; Saturation concentration ([1]; Phosphate buffer at pH 6.8, 37° C., hydrochloride): 1249.45 µg/mL; Saturation concentration ([1]; Phosphate buffer at pH 7.4, 37° C., hydrochloride): 1363.53 µg/mL; Saturation concentration ([1]; Water for injection, 37° C., hydrochloride): 1187.36 µg/mL"
1.05,2.64,4.66,0.78,CCCN[C@H]1CCc2nc(N)sc2C1 [pramipexole xinafoate],Duration of sustained release [2]: up to 35 days; Solubility compared with the other salts ([1]; summary of Table 1): significantly decreased
227.63,275.34,345.29,189.25,pramipexole pamoate,
